The supplement of paper PMC10307832

Columns and labels:
Experiment in all cases: relative viability (nuclei count vs DMSO), 5 days (fraction); higher = more cells survive
[1] = compound: C[C@]12O[C@H](C[C@]1(O)CO)n1c3ccccc3c3c4c(c5c6ccccc6n2c5c31)CNC4=O [Lestaurtinib] + Nc1nc2[nH]cc(CCc3ccc(C(=O)N[C@@H](CCC(=O)O)C(=O)O)cc3)c2c(=O)[nH]1 [Pemetrexed] (partner 0.2 µM)
In short: (§1)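 Relative viability is defined as nuclei in treated wells over nuclei in vehicle wells. Duplicate plates were run and medians reported. Lung cancer cell lines in 1536-well plates were dosed by pin tool one day after seeding, with one drug or with a fixed anchor-drug dose plus five library-drug doses (not always all listed) in √10 steps, and nuclei were counted after 5 days.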

[2] = compound: C[C@]12O[C@H](C[C@]1(O)CO)n1c3ccccc3c3c4c(c5c6ccccc6n2c5c31)CNC4=O [Lestaurtinib] + COc1cccc2cc(-c3nc([C@H]4CC[C@H](C(=O)O)CC4)n4ncnc(N)c34)[nH]c12 [OSI-027] (partner 0.5 µM)
In short: as §1

[3] = compound: C1=CC(=CC=C1C2=CC(=C(S2)NC(=O)N)C(=O)N)F [TPCA-1] + C[C@]1(O)C[C@@H](c2nc(-c3ccc4ccc(-c5ccccc5)nc4c3)c3c(N)nccn32)C1 [Linsitinib] (partner 1 µM)
In short: as §1

[4] = compound: C[C@]12O[C@H](C[C@]1(O)CO)n1c3ccccc3c3c4c(c5c6ccccc6n2c5c31)CNC4=O [Lestaurtinib] + NC(=O)Nc1cc(-c2cccc(F)c2)sc1C(=O)N[C@H]1CCCNC1 [AZD7762] (partner 0.2 µM)
In short: as §1

Row | Cell Line | relative viability ([1]; first compound 0.005 µM) | relative viability ([1]; first compound 0.01581 µM) | relative viability ([1]; first compound 0.05 µM) | relative viability ([1]; first compound 0.1581 µM) | relative viability ([1]; first compound 0.5 µM) | relative viability ([2]; first compound 0.005 µM) | relative viability ([2]; first compound 0.01581 µM) | relative viability ([2]; first compound 0.05 µM) | relative viability ([2]; first compound 0.1581 µM) | relative viability ([2]; first compound 0.5 µM) | relative viability ([3]; first compound 0.04 µM) | relative viability ([3]; first compound 0.1265 µM) | relative viability ([3]; first compound 0.4 µM) | relative viability ([3]; first compound 1.265 µM) | relative viability ([3]; first compound 4 µM) | relative viability ([4]; first compound 0.005 µM) | relative viability ([4]; first compound 0.01581 µM) | relative viability ([4]; first compound 0.05 µM) | relative viability ([4]; first compound 0.1581 µM) | relative viability ([4]; first compound 0.5 µM)
1 | HCC-15 | 0.244 | 0.227 | 0.229 | 0.195 | 0.138 | 0.717 | 0.757 | 0.658 | 0.464 | 0.185 | 0.951 | 0.886 | 0.82 | 0.895 | 0.802 | 1.25 | 1.36 | 0.937 | 1.18 | 0.188
2 | H3255 | 0.578 | 0.623 | 0.493 | 0.563 | 0.428 | 0.63 | 0.515 | 0.56 | 0.36 | 0.276 | 1.06 | 0.826 | 0.95 | 0.866 | 0.708 | 0.961 | 0.945 | 0.866 | 0.879 | 0.543
3 | NCI-H1792 | 0.748 | 1.15 | 0.257 | 0.371 | 0.31 | 0.95 | 0.698 | 0.83 | 0.776 | 0.424 | 0.574 | 0.467 | 0.561 | 0.47 | 0.283 | 0.758 | 0.669 | 0.556 | 0.387 | 0.174
4 | NCI-H596 | 0.487 | 0.488 | 0.504 | 0.476 | 0.453 | 0.743 | 0.818 | 0.647 | 0.717 | 0.65 | 1.14 | 1.05 | 1.13 | 1.11 | 1.14 | 1.13 | 0.95 | 0.893 | 1.13 | 1.05
5 | NCI-H2087 | 0.708 | 0.688 | 0.675 | 0.632 | 0.332 | 0.627 | 0.634 | 0.531 | 0.408 | 0.338 | 0.989 | 0.938 | 1.03 | 0.836 | 0.553 | 1.27 | 1.2 | 1.06 | 0.761 | 0.302
6 | EMC-BAC-2 | 0.452 | 0.429 | 0.488 | 0.352 | 0.308 | 0.38 | 0.365 | 0.363 | 0.308 | 0.263 | 0.848 | 0.739 | 0.822 | 0.837 | 0.66 | 1.07 | 1.12 | 0.842 | 0.441 | 0.346
7 | NCI-H1355 | 1.1 | 1.08 | 0.928 | 0.754 | 0.607 | 0.387 | 0.438 | 0.362 | 0.309 | 0.286 | 0.99 | 0.709 | 0.737 | 0.711 | 0.667 | 0.839 | 0.815 | 0.574 | 0.54 | 0.422
8 | NCI-H23 | 0.622 | 0.787 | 0.503 | 0.449 | 0.292 | 0.592 | 0.719 | 0.596 | 0.418 | 0.345 | 0.537 | 0.559 | 0.759 | 0.602 | 0.549 | 0.213 | 0.257 | 0.227 | 0.246 | 0.203
9 | NCI-H1651 | 0.534 | 0.722 | 0.571 | 0.615 | 0.388 | 0.745 | 0.799 | 0.566 | 0.753 | 0.493 | 1.13 | 0.891 | 0.985 | 0.947 | 0.974 | 0.447 | 0.503 | 0.349 | 0.558 | 0.318
10 | NCI-H1975 | 0.298 | 0.295 | 0.292 | 0.281 | 0.218 | 0.795 | 0.75 | 0.534 | 0.412 | 0.347 | 0.93 | 0.916 | 0.971 | 0.918 | 0.946 | 0.806 | 0.86 | 0.693 | 0.745 | 0.511
11 | HCC-44 | 0.635 | 0.685 | 0.491 | 0.648 | 0.377 | 0.548 | 0.654 | 0.462 | 0.659 | 0.705 | 0.608 | 0.63 | 0.705 | 0.656 | 0.666 | 0.949 | 1.08 | 1.09 | 1.14 | 0.75
12 | LOU-NH91 | 0.413 | 0.509 | 0.448 | 0.583 | 0.338 | 0.728 | 0.711 | 0.637 | 0.574 | 0.424 | 1.02 | 0.841 | 1 | 0.993 | 0.859 | 0.688 | 0.754 | 0.573 | 0.524 | 0.378
13 | NCI-H441 | 0.272 | 0.258 | 0.238 | 0.277 | 0.285 | 0.597 | 0.589 | 0.279 | 0.342 | 0.303 | 0.669 | 0.287 | 0.569 | 0.328 | 0.188 | 1.17 | 1.39 | 1.04 | 1.01 | 0.743
14 | NCI-H647 | 0.187 | 0.162 | 0.183 | 0.119 | 0.064 | 0.6 | 0.562 | 0.28 | 0.205 | 0.143 | 1.11 | 1.07 | 1.1 | 1.05 | 0.694 | 0.307 | 0.756 | 0.275 | 0.165 | 0.0697
15 | NCI-H1915 | 0.589 | 0.432 | 0.458 | 0.447 | 0.205 | 0.687 | 0.477 | 0.42 | 0.337 | 0.246 | 1.16 | 1.12 | 1.15 | 1.04 | 1.03 | 0.751 | 0.745 | 0.655 | 0.52 | 0.24
16 | NCI-H1734 | 0.439 | 0.392 | 0.402 | 0.397 | 0.178 | 0.678 | 0.571 | 0.368 | 0.362 | 0.187 | 0.992 | 0.729 | 0.878 | 0.829 | 0.89 | 0.502 | 0.512 | 0.447 | 0.326 | 0.18
